Data from patent publication US20240393340A1, “PROGNOSIS AND PREDICTIVE BIOMARKERS AND BIOLOGICAL APPLICATIONS THEREOF” (INSTITUT GUSTAVE ROUSSY, priority 2013, published 2024).

Test system: eIF4E-eIF4G and eIF4E-4EBP1 interactions
Assay: Proximity ligation assay in cell lines
Format: cell-based
Excerpt: FIGS. 4A-4B: The interactions between eIF4E and eIG4G (“Cap-ON”) and between […] (“Cap-OFF” interaction) are (FIG. 4A) visualized by the PLA technique and (FIG. 4B) quantified (number of points per 100 nucleus) using ImageJ for the indicated cell lines and treatments.
FIGS. 5A-5C: The interactions between eIF4E and eIF4G (“Cap-ON”) and between […] (“Cap-OFF” interaction) are (FIG. 5A) visualized by the PLA technique and (FIG. 5B) quantified (number of points per 100 nucleus) using ImageJ for the indicated cell lines and treatments. (FIG. 5C) Cells were treated with increasing concentrations of PLX-4720 for 72 h, and cell viability was determined using CellTiter-Blue by measuring the absorbance at 540 nm in a microplate reader. Error bars show datatstandard error. Means were derived from four replicates (n=4).
FIGS. 9A-9B: The formation of the eIF4F translation initiation complex is associated with resistance to anti-BRAF inhibitors. FIG. 9A: Quantification of the proximity ligation assay showing the number of red spots (corresponding to the interactions between eIF4E-elF4G or eIF4E-4EBP1) per 100 nuclei (quantified with the Volocity software). Data are means±s.d. (n=3). Significance determined by Mann-Whitney U test (*P<0.05, **P<0.01). FIG. 9B: The eIF4E-eIF4G and eIF4E-4EBP1 interactions detected by in situ proximity ligation assay in vemurafenib (6 μM)-treated (24 h) or untreated HT29 colon cancer cell line and BCPAP thyroid cancer cell line respectively. The interactions were visualised as red fluorescent spots by the scanner Olympus VS120. Cell nuclei were stained with DAPI (blue).
Proximity ligation assays (PLAs) were performed on both fixed and permeabilized transfected cell lines in chamber slides and TMA slides containing melanoma tissue. Following dewaxing and rehydrating of tissue sections, antigen retrieval was performed by heating the slides for 30 min at 95° C. in TE buffer, pH 9. […] The number of in situ PLA signals per cell was counted by semi-automated image analysis. […]

[1] = sensitive cell lines A375, Mel888, treated vs untreated

With `CCCS(=O)(=O)Nc1ccc(F)c(C(=O)c2c[nH]c3ncc(Cl)cc23)c1F` [PLX-4720, N-[3-[(5-Chloro-1H-pyrrolo[2,3-b]pyridin-3-yl)carbonyl]-2,4-difluorophenyl]-1-propanesulfonamide] the “Cap-ON and Cap-OFF interaction” value (less sensitive / resistant cell lines Mel624, A2058) was “didn't affect”, the “eIF4E-4EBP1 (Cap-OFF) interaction” value [1] was “increase” and the “eIF4E-eIF4G (Cap-ON) interaction” value [1] was “reduced signal counts”.
